Measurements as given in patent publication US20220009920A1 (GB005, Inc., priority 2020, published 2022).

Columns and labels:
Experiment in all cases: Large panel kinase profiling
Format in all cases: biochemical
Conditions in all cases: 1 μM test article, 1 mM ATP
LYNA = LYNA (Homo sapiens, UniProt P07948)
In short: (§1)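 Activity is measured in real time from the CSox sensor's fluorescence at 485 nm after 360 nm excitation, sampled every minute. Assays run at 30° C. with 1 mM ATP and a single 1 μM compound dose.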

PRKCI/PKCI = target: T1, PRKCI/PKCI (Homo sapiens, UniProt P41743)
T1 sequence (P41743 1-596): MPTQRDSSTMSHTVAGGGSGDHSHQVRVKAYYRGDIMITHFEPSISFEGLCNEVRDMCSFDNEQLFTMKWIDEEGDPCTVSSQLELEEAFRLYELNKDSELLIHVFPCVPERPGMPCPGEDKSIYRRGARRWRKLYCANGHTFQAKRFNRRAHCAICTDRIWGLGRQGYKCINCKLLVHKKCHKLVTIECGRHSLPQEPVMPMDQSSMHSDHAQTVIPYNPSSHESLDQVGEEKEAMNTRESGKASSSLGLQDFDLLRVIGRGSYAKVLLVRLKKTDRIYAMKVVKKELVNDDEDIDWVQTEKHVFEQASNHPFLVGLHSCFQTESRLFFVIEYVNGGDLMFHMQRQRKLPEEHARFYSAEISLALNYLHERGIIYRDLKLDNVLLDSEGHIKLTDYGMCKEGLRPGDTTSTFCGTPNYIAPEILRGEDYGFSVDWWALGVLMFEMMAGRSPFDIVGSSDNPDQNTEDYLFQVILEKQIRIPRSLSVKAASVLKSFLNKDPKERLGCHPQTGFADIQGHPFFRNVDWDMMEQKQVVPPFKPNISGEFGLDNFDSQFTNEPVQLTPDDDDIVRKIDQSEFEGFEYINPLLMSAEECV
In short: as §1

PIM2 = PIM2 (Homo sapiens, UniProt Q9P1W9)
PIM2, sequence (Q9P1W9 whole entry, species assumed): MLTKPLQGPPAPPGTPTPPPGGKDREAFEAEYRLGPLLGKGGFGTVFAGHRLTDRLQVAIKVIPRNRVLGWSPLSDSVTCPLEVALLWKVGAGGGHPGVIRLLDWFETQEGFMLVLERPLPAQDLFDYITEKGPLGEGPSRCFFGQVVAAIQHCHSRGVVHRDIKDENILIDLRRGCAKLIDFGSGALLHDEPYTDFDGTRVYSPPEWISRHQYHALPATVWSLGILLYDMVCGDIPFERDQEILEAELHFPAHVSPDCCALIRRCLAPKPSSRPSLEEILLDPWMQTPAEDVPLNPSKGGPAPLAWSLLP
In short: as §1

MAPK10/JNK3 = target: T2, MAPK10/JNK3 (Homo sapiens, UniProt P53779)
T2 construct: AssayQuant Technologies, Inc. (service provider)
T2 sequence (P53779 whole entry): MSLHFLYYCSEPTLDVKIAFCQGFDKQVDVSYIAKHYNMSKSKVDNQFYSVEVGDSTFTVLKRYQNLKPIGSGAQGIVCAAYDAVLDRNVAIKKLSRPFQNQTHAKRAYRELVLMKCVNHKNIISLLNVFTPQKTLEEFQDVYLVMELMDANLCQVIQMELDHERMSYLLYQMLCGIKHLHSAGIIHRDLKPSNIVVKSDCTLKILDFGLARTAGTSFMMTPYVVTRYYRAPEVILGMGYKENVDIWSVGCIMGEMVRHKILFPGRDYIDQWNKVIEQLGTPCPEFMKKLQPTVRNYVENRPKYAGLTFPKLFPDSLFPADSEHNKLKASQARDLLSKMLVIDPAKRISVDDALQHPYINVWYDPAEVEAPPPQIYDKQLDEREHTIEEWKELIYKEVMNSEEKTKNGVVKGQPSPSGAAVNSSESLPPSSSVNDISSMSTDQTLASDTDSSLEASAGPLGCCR
In short: as §1

ABL2 = ABL2 (Homo sapiens, UniProt P42684)
ABL2, sequence (P42684 whole entry): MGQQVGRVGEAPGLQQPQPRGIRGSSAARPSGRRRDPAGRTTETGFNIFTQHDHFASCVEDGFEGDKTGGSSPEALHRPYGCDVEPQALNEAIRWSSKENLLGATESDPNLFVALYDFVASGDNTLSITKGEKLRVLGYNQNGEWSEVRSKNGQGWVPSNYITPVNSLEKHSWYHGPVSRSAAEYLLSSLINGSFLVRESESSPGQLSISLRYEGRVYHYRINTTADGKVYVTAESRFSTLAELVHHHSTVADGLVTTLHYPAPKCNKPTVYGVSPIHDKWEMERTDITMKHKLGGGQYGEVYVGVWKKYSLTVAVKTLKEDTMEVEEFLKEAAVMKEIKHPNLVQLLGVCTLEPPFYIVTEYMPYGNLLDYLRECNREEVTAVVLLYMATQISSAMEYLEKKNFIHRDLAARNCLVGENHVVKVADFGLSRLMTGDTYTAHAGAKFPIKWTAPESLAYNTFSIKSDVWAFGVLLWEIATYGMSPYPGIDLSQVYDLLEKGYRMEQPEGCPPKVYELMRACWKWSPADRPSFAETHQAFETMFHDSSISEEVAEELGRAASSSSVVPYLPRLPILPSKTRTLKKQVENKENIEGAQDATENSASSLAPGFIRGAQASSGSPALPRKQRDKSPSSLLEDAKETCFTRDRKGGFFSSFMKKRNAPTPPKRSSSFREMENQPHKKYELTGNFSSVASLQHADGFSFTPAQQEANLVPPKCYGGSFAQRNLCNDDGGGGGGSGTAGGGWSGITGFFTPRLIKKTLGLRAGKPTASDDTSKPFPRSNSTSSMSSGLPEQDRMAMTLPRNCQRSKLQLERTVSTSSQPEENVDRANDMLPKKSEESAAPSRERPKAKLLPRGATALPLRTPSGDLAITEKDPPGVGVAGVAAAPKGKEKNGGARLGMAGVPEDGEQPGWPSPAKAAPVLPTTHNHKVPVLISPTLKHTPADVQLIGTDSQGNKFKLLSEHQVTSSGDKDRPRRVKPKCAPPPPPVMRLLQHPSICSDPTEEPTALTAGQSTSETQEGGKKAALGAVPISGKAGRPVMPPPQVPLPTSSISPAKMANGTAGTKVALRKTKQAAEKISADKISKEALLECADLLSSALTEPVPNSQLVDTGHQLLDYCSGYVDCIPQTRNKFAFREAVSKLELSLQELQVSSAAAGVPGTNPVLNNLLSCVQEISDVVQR
In short: as §1

MAP3K5 = target: T3, MAP3K5 (Homo sapiens, UniProt Q99683)
T3 construct: AssayQuant Technologies, Inc. (service provider)
T3 sequence (Q99683 1-1374): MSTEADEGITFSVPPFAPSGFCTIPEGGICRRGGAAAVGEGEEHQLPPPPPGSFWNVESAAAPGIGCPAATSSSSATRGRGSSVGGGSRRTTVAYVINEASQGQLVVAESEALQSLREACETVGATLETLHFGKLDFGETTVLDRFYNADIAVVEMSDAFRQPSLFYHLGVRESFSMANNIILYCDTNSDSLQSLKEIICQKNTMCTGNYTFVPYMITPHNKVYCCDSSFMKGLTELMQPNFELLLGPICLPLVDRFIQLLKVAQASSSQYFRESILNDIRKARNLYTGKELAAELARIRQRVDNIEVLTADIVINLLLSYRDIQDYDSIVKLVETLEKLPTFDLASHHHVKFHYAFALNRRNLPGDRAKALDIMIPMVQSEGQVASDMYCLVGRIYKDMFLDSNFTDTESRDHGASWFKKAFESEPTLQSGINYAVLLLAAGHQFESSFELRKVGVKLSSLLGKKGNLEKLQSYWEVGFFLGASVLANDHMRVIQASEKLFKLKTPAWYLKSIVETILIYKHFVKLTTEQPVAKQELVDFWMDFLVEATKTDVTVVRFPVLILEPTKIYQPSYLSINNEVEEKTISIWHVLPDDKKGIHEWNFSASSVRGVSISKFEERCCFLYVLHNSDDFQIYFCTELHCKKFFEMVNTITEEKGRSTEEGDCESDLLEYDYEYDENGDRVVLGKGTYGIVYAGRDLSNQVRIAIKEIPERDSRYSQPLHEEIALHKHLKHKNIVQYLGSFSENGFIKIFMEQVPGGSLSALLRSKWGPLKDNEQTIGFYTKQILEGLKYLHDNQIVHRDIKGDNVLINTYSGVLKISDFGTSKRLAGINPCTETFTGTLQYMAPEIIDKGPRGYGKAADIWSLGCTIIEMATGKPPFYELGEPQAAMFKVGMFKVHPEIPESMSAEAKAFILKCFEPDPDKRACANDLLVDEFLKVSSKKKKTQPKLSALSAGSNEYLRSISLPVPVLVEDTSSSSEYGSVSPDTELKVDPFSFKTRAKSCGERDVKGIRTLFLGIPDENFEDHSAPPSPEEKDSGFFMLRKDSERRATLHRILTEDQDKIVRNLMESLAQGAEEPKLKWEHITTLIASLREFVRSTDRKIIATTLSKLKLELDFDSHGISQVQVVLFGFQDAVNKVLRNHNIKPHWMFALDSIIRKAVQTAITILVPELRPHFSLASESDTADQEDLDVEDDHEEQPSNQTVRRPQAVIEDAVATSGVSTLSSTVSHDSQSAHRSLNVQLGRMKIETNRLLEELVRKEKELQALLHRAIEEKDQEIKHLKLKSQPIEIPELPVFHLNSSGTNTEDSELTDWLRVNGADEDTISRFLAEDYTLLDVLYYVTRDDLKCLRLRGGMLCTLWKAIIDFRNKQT
In short: as §1

IRAK1 = IRAK1 (Homo sapiens, UniProt P51617)
IRAK1, sequence (P51617 whole entry, species assumed): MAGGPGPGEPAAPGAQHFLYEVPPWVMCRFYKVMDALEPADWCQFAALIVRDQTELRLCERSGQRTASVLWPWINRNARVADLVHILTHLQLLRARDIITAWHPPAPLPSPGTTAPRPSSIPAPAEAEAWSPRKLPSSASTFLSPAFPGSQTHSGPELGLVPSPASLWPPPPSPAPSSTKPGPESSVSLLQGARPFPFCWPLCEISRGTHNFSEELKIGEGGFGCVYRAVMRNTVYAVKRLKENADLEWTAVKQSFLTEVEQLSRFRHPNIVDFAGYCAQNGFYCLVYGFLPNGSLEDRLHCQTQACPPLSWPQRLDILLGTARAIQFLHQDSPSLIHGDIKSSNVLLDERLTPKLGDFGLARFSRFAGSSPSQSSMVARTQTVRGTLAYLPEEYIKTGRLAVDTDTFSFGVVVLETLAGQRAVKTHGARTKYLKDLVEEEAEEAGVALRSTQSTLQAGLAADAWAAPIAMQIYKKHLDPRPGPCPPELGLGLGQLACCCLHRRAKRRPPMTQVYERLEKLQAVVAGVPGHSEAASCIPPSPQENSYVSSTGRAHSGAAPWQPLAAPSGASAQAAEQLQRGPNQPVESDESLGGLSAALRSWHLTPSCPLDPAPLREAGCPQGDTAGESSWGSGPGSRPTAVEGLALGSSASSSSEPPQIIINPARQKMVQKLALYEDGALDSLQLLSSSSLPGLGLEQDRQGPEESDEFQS
In short: as §1

PRKDC/DNA-PK = PRKDC/DNA-PK (Homo sapiens, UniProt P78527)
In short: as §1

SLK = target: T4, SLK (Homo sapiens, UniProt Q9H2G2)
T4 construct: AssayQuant Technologies, Inc. (contract assay)
T4 sequence (Q9H2G2 whole entry): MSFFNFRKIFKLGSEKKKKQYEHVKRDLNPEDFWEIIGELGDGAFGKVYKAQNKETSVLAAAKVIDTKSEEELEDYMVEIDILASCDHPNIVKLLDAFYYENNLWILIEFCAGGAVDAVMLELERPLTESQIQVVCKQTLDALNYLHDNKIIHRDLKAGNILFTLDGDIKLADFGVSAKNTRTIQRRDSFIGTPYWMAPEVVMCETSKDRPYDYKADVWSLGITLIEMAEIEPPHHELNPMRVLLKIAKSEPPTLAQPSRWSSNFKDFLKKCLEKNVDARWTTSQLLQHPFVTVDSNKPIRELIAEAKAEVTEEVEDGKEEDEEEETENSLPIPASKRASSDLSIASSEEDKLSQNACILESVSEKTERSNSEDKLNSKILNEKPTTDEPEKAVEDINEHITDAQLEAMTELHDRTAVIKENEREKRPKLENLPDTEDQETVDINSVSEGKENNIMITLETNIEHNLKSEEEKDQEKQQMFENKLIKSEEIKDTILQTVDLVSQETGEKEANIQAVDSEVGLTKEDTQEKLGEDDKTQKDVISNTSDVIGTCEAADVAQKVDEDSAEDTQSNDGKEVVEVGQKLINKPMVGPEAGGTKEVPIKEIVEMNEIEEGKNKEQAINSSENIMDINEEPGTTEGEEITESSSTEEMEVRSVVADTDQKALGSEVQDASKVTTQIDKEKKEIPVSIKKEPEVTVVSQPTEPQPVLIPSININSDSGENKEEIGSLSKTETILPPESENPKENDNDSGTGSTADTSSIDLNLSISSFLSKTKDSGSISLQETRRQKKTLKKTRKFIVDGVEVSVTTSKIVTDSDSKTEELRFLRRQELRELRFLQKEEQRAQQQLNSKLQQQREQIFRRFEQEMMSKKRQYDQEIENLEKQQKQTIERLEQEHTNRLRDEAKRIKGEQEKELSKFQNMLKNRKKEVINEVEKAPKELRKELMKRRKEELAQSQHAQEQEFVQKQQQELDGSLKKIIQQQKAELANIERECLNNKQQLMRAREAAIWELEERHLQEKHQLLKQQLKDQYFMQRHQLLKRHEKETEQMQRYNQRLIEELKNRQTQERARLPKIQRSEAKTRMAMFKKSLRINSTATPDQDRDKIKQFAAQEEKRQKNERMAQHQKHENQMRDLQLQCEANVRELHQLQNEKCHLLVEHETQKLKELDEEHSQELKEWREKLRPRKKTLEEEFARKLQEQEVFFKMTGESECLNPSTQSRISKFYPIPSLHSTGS
In short: as §1

DYRK1A = target: T5, DYRK1A (Homo sapiens, UniProt Q13627)
T5 construct: AssayQuant Technologies, Inc. (service laboratory)
In short: as §1

LYNA, sequence (P07948 whole entry, species assumed): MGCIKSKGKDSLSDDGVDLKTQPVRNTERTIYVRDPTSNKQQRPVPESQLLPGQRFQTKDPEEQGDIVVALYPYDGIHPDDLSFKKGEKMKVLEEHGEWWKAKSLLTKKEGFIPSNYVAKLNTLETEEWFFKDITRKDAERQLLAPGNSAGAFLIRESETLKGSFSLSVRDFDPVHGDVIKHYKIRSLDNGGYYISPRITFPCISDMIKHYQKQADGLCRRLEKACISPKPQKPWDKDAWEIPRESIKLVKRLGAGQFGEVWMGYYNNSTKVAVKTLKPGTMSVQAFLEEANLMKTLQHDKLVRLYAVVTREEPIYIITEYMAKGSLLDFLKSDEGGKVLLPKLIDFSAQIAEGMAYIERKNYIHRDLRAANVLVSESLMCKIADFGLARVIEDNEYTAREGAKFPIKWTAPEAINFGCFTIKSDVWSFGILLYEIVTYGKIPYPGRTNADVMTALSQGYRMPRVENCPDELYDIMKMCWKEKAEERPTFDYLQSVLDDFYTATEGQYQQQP

Row | SMILES | inhibition at 1 µM (LYNA) [%] | inhibition at 1 µM (PRKCI/PKCI) [%] | inhibition at 1 µM (PIM2) [%] | inhibition at 1 µM (MAPK10/JNK3) [%] | inhibition at 1 µM (ABL2) [%] | inhibition at 1 µM (MAP3K5) [%] | inhibition at 1 µM (IRAK1) [%] | inhibition at 1 µM (PRKDC/DNA-PK) [%] | inhibition at 1 µM (SLK) [%] | inhibition at 1 µM (DYRK1A) [%]
1 | C=CC(=O)N1CCCC(c2c(F)cc(C(N)=O)c3[nH]c4c(c23)CCCCC4)C1 (single isomer, unassigned) [Compound 5-6] | -2.9 | -0.6 | 2.5 | -13 | -29.7 | -10.4 | -28.6 | -40.6 | -3.7 | 20.4
2 | C=CC(=O)N1CCC[C@@H](c2c(F)cc(C(N)=O)c3[nH]c4c(c23)CC2(CC4)CC2)C1 [Compound 6-2, (S)-5-(1-acryloylpiperidin-3-yl)-6-fluoro-1,2,4,9-tetrahydrospiro[carbazole-3,1′-cyclopropane]-8-carboxamide] | 36.4 | 9 | 10.9 | 32.1 | -1.3 | 20 | 5.6 | 35 | 8.9 | -2.2
3 | C=CC(=O)N1CCC[C@@H](c2c(F)cc(C(N)=O)c3[nH]c4c(c23)CCC4)C1 [Compound 10-2, (S)-8-(1-acryloylpiperidin-3-yl)-7-fluoro-1,2,3,4-tetrahydrocyclo-penta[b]indole-5-carboxamide] | 22.8 | -3.3 | 3.3 | -4 | 1.9 | 16.7 | 7.8 | 14.6 | -48.3 | 7.2
